Data taken from US20150164824A1, “METHODS AND COMPOSITIONS USEFUL FOR IMPROVING BONE AND JOINT HEALTH” (ABBOTT LABORATORIES, priority 2012, published 2015).

Columns and labels:
[1] = test system: Human osteoclast precursors; assay: OsteoLyse assay: osteoclast differentiation and collagen degradation in vitro; format: cell-based; conditions: relative to standard control wells (100%); day seven of culture; FIG. 1
Protocol: A 96-well OsteoLyse™ assay system (commercially available from Lonza Biosciences, Walkersville, Md.) was used for this evaluation. Specifically, a 96-well OsteoLyse™ plate was coated with fluorophore-derivatized human bone matrix (europium conjugated collagen). Human osteoclast precursors, at a density of 10,000/200 μl of differentiation medium (containing M-CSF and RANK Ligand) were seeded onto the surface of the plate. Triplicate cell culture wells were treated with one of: Curcumin in DMSO; Vitamin K2 in ethanol; combination of Curcumin and Vitamin K2; and alendronate (control). Cell culture wells with only differentiation medium were treated as standard control wells. After six days of culture, old medium was removed and 200 μl of fresh differentiation medium was added to all wells. Twenty-four hours later, on day seven of culture, 10 μl of medium supernatant was used for fluorescence measurement. For the measurement, 10 μl of medium supernatant was added to 100 μl of fluorophore-releasing agent (Lonza Bioscience, Walkersville, Md.) in a black-walled 96-well plate. The samples were briefly mixed and fluorescence was determined using a time-resolved fluorescence fluorimeter (Spectramax M5, available from Molecular Devices, Sunnyvale, Calif., with excitation at 340 nm and emission at 615 nm) over a 400-microsecond time period after an initial delay of 400 microseconds. Osteoclast differentiation in a standard control cell culture well was assumed to be 100% and relative osteoclast differentiation, with respect to control wells, in other cell culture wells was calculated and plotted on the bar graph shown in FIG. 1.

[2] = test system: Primary human osteoclast precursors; assay: OsteoAssay plate / CalciFluor assay: bone resorption by osteoclasts; format: cell-based; conditions: relative to standard control cells; calcium release, day eight of culture; FIG. 2
Protocol: A 96-well OsteoAssay™ plate (commercially available from Lonza Biosciences, Walkersville, Md.) was used for this evaluation. Specially, a 96-well OsteoAssay™ plate was coated with a thin-layer of adherent human bone particles. Primary human osteoclast precursors, at a density of 10,000/200 μl of differentiation medium (containing M-CSF and RANK Ligand), were seeded onto the surface of the plate. Triplicate cell culture wells were treated with one of: Curcumin in DMSO; Vitamin K2 in ethanol; combination of Curcumin and Vitamin K2; and alendronate (control). Cell culture wells with only differentiation medium were treated as standard control wells. After six days of culture, old medium was removed and 200 μl of fresh basal resorption medium containing M-CSF and RANK Ligand was added to all wells. Forty-eight hours later, on day eight of culture, 10 μl of medium supernatant was used for calcifluor assay. […] The samples were briefly mixed and fluorescence was determined using a fluorimeter (Spectramax M5, available from Molecular Devices, Sunnyvale, Calif., with excitation at 551 nm and emission at 577 nm). The concentration of calcium in each well was calculated based on the standard curve. […] The relative percentage inhibition of bone resorption, with respect to standard control cells, was calculated and plotted on the bar graph as shown in FIG. 2.

Molecule | inhibition of osteoclast differentiation [1] | inhibition of bone resorption [2] [%]
NCCCC(O)(P(=O)(O)O)P(=O)(O)O [Alendronate, reference compound] | 53.6% | 
COc1cc(/C=C/C(=O)CC(=O)/C=C/c2ccc(O)c(OC)c2)ccc1O [Curcumin, (1E,6E)-1,7-bis(4-hydroxy-3-methoxyphenyl)-1,6-heptadiene-3,5-dione] | did not significantly inhibit | 39.7
menaquinone [Vitamin K2] | did not significantly inhibit | 31.9
